Source: US8575089B2, “Composition for preventing or treating inflammation” (University-Industry Cooperation Group of Kyung Hee, priority 2009, dated 2013)
Where no end group is shown, it is not given here.

Tests used:
[1] = tested on: hematopoietic stem cells in blood; experiment: Corneal epithelial burn model: HSC-CFU assay of blood cells; type: in vivo, New Zealand white rabbit; details: rabbit, alkali burn of cornea; 5 nmole/kg SP i.v. immediately and 24 hours after burning; without SP peak at five days; FIG. 5
Description: Ketalar (50 mg/ml, Yuhan Corporation) and Rompun (23.32 mg (Xylazine hydrochloride)/ml, Bayer Korea Corporation) were mixed in a rate of 2:1, and then total 900 μl (Ketalar 600 μl: Rompun 300 μl) was injected into muscles of rabbits (New Zealand white rabbit, Male, 2.5 kg, n=4). After the intramuscular injection, 300 μl (Ketalar 200 μl: Rompun 100 μl) of the same anesthetic drug was injected in the rabbit's ear vein.
A 6 mm paper disc fully wetted by 1N NaOH was contacted to a limbus part of rabbit's cornea for 10 seconds. After alkali burning, corneal epithelium was removed in a size of the paper disc. The rabbit's eyes were quickly washed with a physiological saline immediately after alkali burning. At the same time, 5 nmole/kg of SP dissolved in a physiological saline was intravenously injected, and then after 24 hours, was injected once more (immediately after burning and at 24 hours after burning). For the control, PBS with the same volume was injected (injection Volume: 1 ml).
Peripheral blood was collected from ear veins in 10 ml at one, three, five and seven days after alkali burning. […]
1×10^4 cells among the whole cells was used for HSC-CFU assay. […] The cells were cultured in the media for 2 weeks (5% CO2, 37° C.), the number of colonies was counted by using a microscope (Leica) and then the results were shown in FIG. 5.

[2] = tested on: IL-6 and TNFα; experiment: Radiation-irradiating model: inflammatory cytokines IL-6 and TNFα in serum (ELISA); type: in vivo, C57b1/6 mice; details: mice, 8 Gy, 5 nmole/kg SP i.v.
Description: (§1) 5 nmole/kg of SP dissolved in a physiological saline was injected to a tail vein of C57b1/6 mice (8 weeks, sex; male, n=4, Average weight; 20 g) one day before irradiation and immediately after irradiation. The irradiation was performed at 8 Gy radiation in a Gamma lay radiation irradiator (^137Cs, Atomic Energy of Canada, Mississauga, Canada). The mice were sacrificed at 4.5 hours and one day after irradiation, and then the blood was collected. The part of the blood was used for analyzing CBC (Complete Blood Count) and the remaining blood was used to isolate serum and then analyze cytokines
IL-6 and TNFα that are well known as inflammatory cytokines were analyzed. Specific procedures were as follows: Serum samples stored in […] and reagents, controls, and standard proteins stored in a cold storage were taken out at a room temperature. 50 μl of diluted solution was put into each well; 50 μl of standard, control, and samples were added; well mixed by lightly tapping the plate; and then placed for 2 hours at a room temperature. […] After 30 minutes, 100 μl of stop codon was treated to stop the reaction; the optical density was measured at 450 nm; the amounts of cytokines were converted based on a protein conversion formula by a standard sample; and then the result was shown in FIG. 8. […]

[3] = tested on: regulatory T cells (CD4+, FoxP3+) and anti-inflammatory macrophage M2 (CD11b+, CD206+); experiment: Radiation-irradiating model: FACS of regulatory T cells and macrophage M2 in mesentric lymph nodes and small intestine; type: in vivo, C57b1/6 mice; details: mice, 8 Gy, SP i.v., 4.5 hours after irradiation
Description: as §1
The mice were sacrificed at 4.5 hours after irradiation using the same method as Example 3; mesentric lymph nodes were taken for isolating mononuclear cells; then isolated mononuclear cells were fixed at 3.7% formalin for 1 hour; and then anti-inflammatory-related T cells and macrophages were analyzed through FACS (BD FACSCalibur™: 343098, BD Biosciences, Canada) analysis.
Specifically, the mice were sacrificed at 4.5 hours after 8 Gy radiation; the abdomens were cut to open; mesentric lymph nodes and small intestines were taken and then were cut fine; then chopped by using operating scissors; then were treated with collagenase type I (Worthington, USA) and DNase I (Sigma, USA) at 37° C. for 20 minutes; washed, respectively; mononuclear cells were isolated; and then fixed in 3.7% formalin for 1 hour. The mesentric lymph nodes mononuclear cells fixed in formalin were double-stained with CD4 (130-091-608, Miltenyi Biotec, Germany) and FoxP3 (130-093-013, Miltenyi Biotec, Germany) antibody, and then regulatory T cells were analyzed through FACS analysis. In addition, an anti-inflammatory macrophage M2 analysis was performed through FACS analysis after double staining with CD11b (130-081-201, Miltenyi Biotec, Germany) and CD206 (ab64693, abcam, UK) antibody. Since T cells or macrophages in the small intestine mononuclear cells fixed in a formalin accounted for less than 1% of the whole cells, FACS analysis was performed after isolating CD3 (130-092-962, Miltenyi Biotec, Germany)+ cell and CD11b+ cell with MACS isolating method as disclosed in the previous Example 1-(2), respectively. Regulatory T cells were analyzed by double-staining the cells isolated by CD3 with CD4 and FoxP3 antibody and anti-inflammatory macrophage M2 analysis was performed by double-staining the cells isolated by CD11b with CD11b and CD206 antibody.

[4] = Streptozotocin-induced Type I diabetes: blood glucose level and weight; type: in vivo, ICR mouse; details: for blood glucose level: FIG. 13
Description: Specifically, 5 nmole/kg of SP dissolved in a physiological saline was injected to a tail vein of ICR mouse (8 weeks, sex; male, n=10, Average Weight: 30 g), and then STZ (Sigma, USA) was intraabdominally injected. Streptozotocin was daily injected intraabdominally for two days, and SP was intravenously injected at the same concentration for five days. Only streptozotocin was injected for the control; after one week, blood glucose level was checked to confirm induction of diabetes; then SP was intravenously injected for five days from seven days after STZ injection.
Blood glucose level and weight were investigated. One drop of blood was taken from a tail vein of mouse by one time per 2-3 days, and a blood glucose level was measured by using a glucometer (Roche, Switzerland) and a weight was measured.

Substance-P (RPKPQQFFGLM; not fully specified; ends and bridges not checked; UniProt P20366 58-68, looked up)
number of HSC (HSC-CFU colonies) in blood [1]: increased at early stage and then decreased immediately three days after injection
inhibition of increase of IL-6 in serum ([2]; 4.5 hours after irradiation, vs group without SP, FIG. 8A): about 30%
TNF α in serum ([2]; one day after irradiation, FIG. 8): inhibited
anti-inflammatory macrophage M2 (CD11b+, CD206+) ([3]; mesentric lymph nodes, FIG. 10): increased
regulatory T cells (CD4+, FoxP3+) ([3]; mesentric lymph nodes, FIG. 10): increased
anti-inflammatory macrophage M2 (CD11b+, CD206+) ([3]; small intestines, FIG. 11): increased
regulatory T cells (CD4+, FoxP3+) ([3]; small intestines, FIG. 11): increased
blood glucose level ([4]; STZ/SP-injected group: 5 nmole/kg SP i.v. for five days at the same time as STZ): maintained in normal state
weight ([4]; STZ/SP-injected group: 5 nmole/kg SP i.v. for five days at the same time as STZ, FIG. 14): maintained in normal state
blood glucose level ([4]; STZ/after SP-injected group: SP i.v. for five days from seven days after STZ, after inducing diabetes): decreased in the short run
